This note sets out measurements from US20240174696A1, “2,8-DIAZASPIRO[4.5]DECANE COMPOUNDS” (Genentech, Inc., priority 2021, published 2024).

Molecules are shown by their SMILES. Bounds are passed on as bounds.

Experiment [1] concerns the target Human LATS2 catalytic domain (Homo sapiens (Human), UniProt Q9NRM7). The experiment in a line: LATS2 High ATP HTRF Assay. The format is biochemical. Particulars: no asterisk: LATS2 High ATP HTRF Assay, 5000 μM ATP, 0.05 nM LATS2. The method, then:
Human LATS2 catalytic domain which contains the amino acids G553-V1088 (accession NP_055387) was purified in-house. The LATS2 catalytic domain was co-purified with Mob1b (accession NP_775739). The LATS2 biochemical HTRF assay was performed using the HTRF KinEASE-STK S1 Kit (Cisbio, Cat #62ST1PEC), following the protocol from the manufacturer. Compounds were dispensed by the Echo Liquid Handler (Labcyte) into a white 384-well plate (PerkinElmer, Cat #6008289). 3 uL of 2×LATS2 enzyme solution was added to the compounds, following by a 10 minute incubation at room temperature. Then, 2×ATP and STK S1 peptide solution was added to initiate the one hour enzyme reaction at room temperature. The final condition of the reaction was 0.2 nM LATS2, 50 μM ATP, 0.5 μM STK S1 peptide in 50 mM HEPES pH7.2, 10 mM MgCl2, 0.1% BGG, 0.005% Brij-35, 1 mM DTT. The reaction was quenched by adding 6 uL of the detection mixture which contained Streptavidin XL665 and STK Antibody-Cryptate (Cisbio), incubate for 1 hour at room temperature. The HTRF (665 nm/620 nm) signal was read on the Envision plater reader (PerkinElmer). The IC50 values were determined by fitting the % inhibition with a nonlinear four-parameter logistical equation. The Ki values were calculated using the Cheng-Prusoff equation for a competitive inhibitor, IC50═Ki (1+S/Km)+M [E] with ATP Km for LATS2=105 μM.
The LATS2 high ATP HTRF assay was performed using the same protocol as the Standard LATS2 HTRF assay. The final condition of the reaction was 0.05 nM LATS2, 5000 μM ATP, 0.5 μM STK S1 peptide in 50 mM HEPES pH7.2, 10 mM MgCl2, 0.1% BGG, 0.005% Brij-35, 1 mM DTT and the 2 hours enzyme reaction at room temperature.
Background: TR-FRET usually uses a lanthanide donor and a delayed reading to cut background.

Experiment [2] deals with TAZ nuclear translocation in SW1990 cells. The experiment in a line: TAZ Nuclear Translocation Assay. Particulars: Homo sapiens, 4 hours. Type of experiment: cell-based. The method, then:
The SW1990 cells (ATCC, CRL2172) were seeded at 5000 cells/well by adding 30 μL/well of cells in RPMI1640, 10% FBS, 2 mM glutamine culture media to a 384-well plate (Greiner 781091). The cells were incubated overnight at 37° C. Next day, test compounds were directly added to the cells using the Echo Liquid Handler (Labcyte), incubate at 37° C. for 4 hours. The cells were fixed with 4% paraformaldehyde and incubate for 20 minutes at room temperature. After washing three times with 100 μL PBS, 0.5% Triton X-100 was added to permeabilize the cells, incubate at room temperature for 5 minutes, following by washing the cells three times with PBS. 3% BSA was added to the cells, incubate for one hour at room temperature, following by washing three times with PBS. 50 μL of 1:750 diluted rabbit Anti-TAZ (Cell signaling D316D) in 3% BSA was added to the cells, incubate at 4° C. overnight. Next day, after washing the cells three times with PBS, 50 μL of 1:1250 diluted donkey anti-Rabbit, Alexa Fluor 488 (Invitrogen A21206) and 1:6250 diluted Hoechst 33342 (Molecular Probes H-21492) in 3% BSA was added to the cells, incubate at room temperature for one hour. The cells were washed three times with PBS, then image with the CellInsight CX7 High-Content Imager. The ratio of nuclear mean fluorescence intensity and cytoplasmic ring region mean fluorescence intensity was calculated. The % inhibition was normalized using DMSO as 0% inhibition and an inhibitor control as 100% inhibition. The EC50 values were calculated by fitting the % inhibition with a nonlinear four-parameter logistical equation.

Sequence of Human LATS2 catalytic domain (Q9NRM7 553-1088): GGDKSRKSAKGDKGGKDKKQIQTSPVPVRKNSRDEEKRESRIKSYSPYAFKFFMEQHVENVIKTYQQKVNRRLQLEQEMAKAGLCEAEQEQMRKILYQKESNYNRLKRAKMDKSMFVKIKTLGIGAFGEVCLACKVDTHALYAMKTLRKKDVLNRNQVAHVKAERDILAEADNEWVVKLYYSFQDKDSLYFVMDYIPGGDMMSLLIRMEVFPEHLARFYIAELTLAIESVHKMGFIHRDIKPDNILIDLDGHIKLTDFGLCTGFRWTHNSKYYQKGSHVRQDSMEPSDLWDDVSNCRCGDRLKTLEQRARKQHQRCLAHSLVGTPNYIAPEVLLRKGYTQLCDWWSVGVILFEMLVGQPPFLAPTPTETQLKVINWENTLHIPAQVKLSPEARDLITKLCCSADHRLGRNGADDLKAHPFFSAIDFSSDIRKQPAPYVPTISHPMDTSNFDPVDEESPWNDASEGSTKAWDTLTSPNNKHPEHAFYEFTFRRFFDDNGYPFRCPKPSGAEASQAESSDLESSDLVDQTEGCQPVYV
Sequence of Human LATS2 catalytic domain (Q7L9L4 whole entry partner, the tested form may be a part): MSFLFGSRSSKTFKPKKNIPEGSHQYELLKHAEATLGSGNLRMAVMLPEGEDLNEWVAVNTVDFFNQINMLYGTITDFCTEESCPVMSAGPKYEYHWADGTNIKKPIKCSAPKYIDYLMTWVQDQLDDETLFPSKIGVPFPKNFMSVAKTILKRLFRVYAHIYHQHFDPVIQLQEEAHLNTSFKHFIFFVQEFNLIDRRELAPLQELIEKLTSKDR

In the case of `NS(=O)(=O)CCN1CCC2(CCN(c3nc(-c4ccncc4)nc4cnccc34)CC2)C1` [Compound 109, 2-(8-(2-(pyridin-4-yl)pyrido[3,4-d]pyrimidin-4-yl)-2,8-diazaspiro[4.5]decan-2-yl)ethanesulfonamide], the affinity in experiment [1] corresponds to a Ki of 0.043 nM. Further, the EC50 in experiment [2] worked out at 3800 nM.
In experiment [1], `CC(C)N1CCC2(CCN(c3nc(-c4ccncc4)nc4cnccc34)CC2)C1` [Compound 117, 4-(2-isopropyl-2,8-diazaspiro[4.5]decan-8-yl)-2-(pyridin-4-yl)pyrido[3,4-d]pyrimidine] showed a Ki of 0.41 nM. In experiment [2], this molecule yielded an EC50 of 1600 nM.
On to `c1cc(-c2nc(N3CCC4(CC3)CCN(C3CCCCC3)C4)c3ccncc3n2)ccn1` [Compound 119, 4-(2-cyclohexyl-2,8-diazaspiro[4.5]decan-8-yl)-2-(pyridin-4-yl)pyrido[3,4-d]pyrimidine], for which the Ki in experiment [1] is 0.03 nM. Moreover, in experiment [2], it took 430 nM to reach a half-maximal effect (EC50).
Consider `CC(=O)NCCN1CCC2(CCN(c3nc(-c4ccncc4)nc4cnccc34)CC2)C1` [Compound 123, N-(2-(8-(2-(pyridin-4-yl)pyrido[3,4-d]pyrimidin-4-yl)-2,8-diazaspiro[4.5]decan-2-yl)ethyl)acetamide], for which the Ki in experiment [1] was found to be 1.09 nM. In addition, in experiment [2], the EC50 turned out to be 2100 nM.
In experiment [1], `CS(=O)(=O)NCCN1CCC2(CCN(c3nc(-c4ccncc4)nc4cnccc34)CC2)C1` [Compound 126, N-(2-(8-(2-(pyridin-4-yl)pyrido[3,4-d]pyrimidin-4-yl)-2,8-diazaspiro[4.5]decan-2-yl)ethyl)methanesulfonamide] registered an inhibition constant Ki of 0.11 nM. The molecule also had a 50% effective concentration (EC50) in experiment [2] of 960 nM.
For `NC(=O)CN1CCC2(CCN(c3nc(-c4ccncc4)nc4cnccc34)CC2)C1` [Compound 130, 2-(8-(2-(pyridin-4-yl)pyrido[3,4-d]pyrimidin-4-yl)-2,8-diazaspiro[4.5]decan-2-yl)acetamide] the same measures were 0.45 nM and 1200 nM.
For `NC(=O)CCN1CCC2(CCN(c3nc(-c4ccncc4)nc4cnccc34)CC2)C1` [Compound 132, 3-(8-(2-(pyridin-4-yl)pyrido[3,4-d]pyrimidin-4-yl)-2,8-diazaspiro[4.5]decan-2-yl)propanamide] the same measures were 0.25 nM and 2400 nM.
In turn, `FCCN1CCC2(CCN(c3nc(-c4ccncc4)nc4cnccc34)CC2)C1` [Compound 134, 4-(2-(2-fluoroethyl)-2,8-diazaspiro[4.5]decan-8-yl)-2-(pyridin-4-yl)pyrido[3,4-d]pyrimidine] registered an inhibitory constant (Ki) in experiment [1] of 0.72 nM. In addition, it took 1100 nM to reach a half-maximal effect in experiment [2] (EC50).
The matching figures for `FCCCN1CCC2(CCN(c3nc(-c4ccncc4)nc4cnccc34)CC2)C1` [Compound 135, 4-(2-(3-fluoropropyl)-2,8-diazaspiro[4.5]decan-8-yl)-2-(pyridin-4-yl)pyrido[3,4-d]pyrimidine]: 0.063 nM and 420 nM.
Molecule `N#CCCN1CCC2(CCN(c3nc(-c4ccncc4)nc4cnccc34)CC2)C1` [Compound 136, 3-(8-(2-(pyridin-4-yl)pyrido[3,4-d]pyrimidin-4-yl)-2,8-diazaspiro[4.5]decan-2-yl)propanenitrile] had a Ki in experiment [1] of 0.45 nM. For the same molecule, the midpoint of the response in experiment [2], the EC50, lay at 3200 nM.
In experiment [1], `c1cc(-c2nc(N3CCC4(CCN(c5cn[nH]c5)C4)CC3)c3ccncc3n2)ccn1` [Compound 141, 4-(2-(1H-pyrazol-4-yl)-2,8-diazaspiro[4.5]decan-8-yl)-2-(pyridin-4-yl)pyrido[3,4-d]pyrimidine] registered a Ki of 3.29 nM. The same molecule registered an EC50 in experiment [2] of more than 10000 nM.
For `Cc1n[nH]cc1-c1nc(N2CCC3(CCNC3)CC2)c2ccncc2n1` [Compound 142, 2-(3-methyl-1H-pyrazol-4-yl)-4-(2,8-diazaspiro[4.5]decan-8-yl)pyrido[3,4-d]pyrimidine] the same measures were 0.037 nM and more than 10000 nM.
`Cc1n[nH]cc1-c1nc(N2CCC3(CCN(CCO)C3)CC2)c2ccncc2n1` [Compound 146, 2-(8-(2-(3-methyl-1H-pyrazol-4-yl)pyrido[3,4-d]pyrimidin-4-yl)-2,8-diazaspiro[4.5]decan-2-yl)ethan-1-ol]: the Ki in experiment [1] came to 0.088 nM. In experiment [2], this molecule registered an EC50 of 2700 nM.
For `Cc1n[nH]cc1-c1nc(N2CCC3(CC2)CCN(C2CCOC2)C3)c2ccncc2n1` (stereo not drawn) [Compound 148, 2-(3-methyl-1H-pyrazol-4-yl)-4-(2-(tetrahydrofuran-3-yl)-2,8-diazaspiro[4.5]decan-8-yl)pyrido[3,4-d]pyrimidine], in experiment [1], the affinity corresponds to a Ki of 0.12 nM. Also, in experiment [2], the midpoint of the response, the EC50, lay at 560 nM.
The matching figures for `Cc1n[nH]cc1-c1nc(N2CCC3(CCN(CCCO)C3)CC2)c2ccncc2n1` [Compound 149, 3-(8-(2-(3-methyl-1H-pyrazol-4-yl)pyrido[3,4-d]pyrimidin-4-yl)-2,8-diazaspiro[4.5]decan-2-yl)propan-1-ol]: 0.045 nM and 2500 nM.
In experiment [1], `Cc1n[nH]cc1-c1nc(N2CCC3(CCN(CC(C)(C)O)C3)CC2)c2ccncc2n1` [Compound 150, 2-methyl-1-(8-(2-(3-methyl-1H-pyrazol-4-yl)pyrido[3,4-d]pyrimidin-4-yl)-2,8-diazaspiro[4.5]decan-2-yl)propan-2-o0] came in with a Ki of 0.059 nM. It took 280 nM to reach a half-maximal effect in experiment [2] (EC50).
For `Cc1n[nH]cc1-c1nc(N2CCC3(CCN(CC4COC4)C3)CC2)c2ccncc2n1` [Compound 152, 2-(3-methyl-1H-pyrazol-4-yl)-4-(2-(oxetan-3-ylmethyl)-2,8-diazaspiro[4.5]decan-8-yl)pyrido[3,4-d]pyrimidine] the same measures were 0.053 nM and 840 nM.
`Clc1[nH]ncc1-c1nc(N2CCC3(CCNC3)CC2)c2ccncc2n1` [Compound 153, 2-(5-chloro-1H-pyrazol-4-yl)-4-(2,8-diazaspiro[4.5]decan-8-yl)pyrido[3,4-d]pyrimidine] came in with a Ki in experiment [1] of 0.11 nM. In experiment [2], this molecule registered an EC50 of more than 10000 nM.
Take `c1cc2c(N3CCC4(CCNC4)CC3)nc(-c3ccnc4[nH]ccc34)nc2cn1` [Compound 156, 2-(1H-pyrrolo[2,3-b]pyridin-4-yl)-4-(2,8-diazaspiro[4.5]decan-8-yl)pyrido[3,4-d]pyrimidine]: the Ki in experiment [1] was determined as 0.7 nM. Also, in experiment [2], the EC50 amounted to 4600 nM.
The matching figures for `Cc1cc2c(N3CCC4(CCNC4)CC3)nc(-c3c[nH]nc3C)nc2cn1` [Compound 160, 6-methyl-2-(3-methyl-1H-pyrazol-4-yl)-4-(2,8-diazaspiro[4.5]decan-8-yl)pyrido[3,4-d]pyrimidine]: 2.02 nM and more than 10000 nM.
The matching figures for `Clc1cncc2nc(-c3ccncc3)nc(N3CCC4(CCNC4)CC3)c12` [Compound 161, 5-chloro-2-(pyridin-4-yl)-4-(2,8-diazaspiro[4.5]decan-8-yl)pyrido[3,4-d]pyrimidine]: 5.55 nM and 1900 nM.
The matching figures for `Cc1cncc2nc(-c3ccncc3)nc(N3CCC4(CCNC4)CC3)c12` [Compound 162, 5-methyl-2-(pyridin-4-yl)-4-(2,8-diazaspiro[4.5]decan-8-yl)pyrido[3,4-d]pyrimidine]: 1.54 nM and 4700 nM.
Molecule `Cc1n[nH]cc1-c1nc(N2CCC3(CCNC3)CC2)c2ccnc(C)c2n1` [Compound 163, 8-methyl-2-(3-methyl-1H-pyrazol-4-yl)-4-(2,8-diazaspiro[4.5]decan-8-yl)pyrido[3,4-d]pyrimidine] registered a Ki in experiment [1] of 2.88 nM. For the same molecule, the EC50 in experiment [2] was more than 10000 nM.
As to `CC1NCCC12CCN(c1nc(-c3ccncc3)nc3cnccc13)CC2` (stereo not drawn) [Compound 166, 4-(1-methyl-2,8-diazaspiro[4.5]decan-8-yl)-2-(pyridin-4-yl)pyrido[3,4-d]pyrimidine], the Ki in experiment [1] came out at 2.67 nM. Moreover, the EC50 in experiment [2] amounted to 1800 nM.

In general, Ki refers to the dissociation constant of the complex between target and ligand, obtained from inhibition or displacement. A low value points to tighter binding. In general, EC50 refers to the concentration at which the effect is half-maximal.
